Test results taken from US20140271694A1, “ANTIGEN-SPECIFIC METHODS OF DIAGNOSING AND/OR TREATING MYOCARDITIS OR INFLAMMATORY CARDIOMYOPATHY” (Joslin Diabetes Center, Inc., priority 2013, published 2014).
Entries after “also recorded” stand apart in the source; their conditions may differ.

Legend:
I-Ag7 = conditions: I-Ag7, dose dependent; cited from earlier work
DQ8 = conditions: cited from earlier work
[1] = tested on: alpha myosin HC presentation to DQ8 molecules; assay: Cardiac myosin-specific DQ8-restricted Clone E T cell hybridoma (BWZ.36.CE, lacZ/β-galactosidase readout) antigen presentation assay; type: cell-based, human; conditions: in vitro, dose-dependent, DQ8-expressing APCs
From the text: FIGS. 15A-C are data showing that the small molecule, tetraazatricyclododecane (TATD), that was predicted to bind pocket 6 of the DQ8 peptide-binding groove (Michels et al, Journal of immunology, 2011), inhibits cardiac myosin presentation by DQ8 to T cells. FIGS. 15A and B are graphs showing that T cell response to insulin B9:23 peptide, measured by IL-2 concentration, is blocked by TATD in a dose dependent manner, for DQ8 and I-Ag7 (Michels et al., Journal of Immunology, 2011). FIG. 15C is a graph showing that T cell response to cardiac myosin stimulation is blocked in vitro by TATD is a dose-dependent manner, in a manner similar to the blocking effect on insulin B9:23 presentation to DQ8. In this assay, T cell responses were measured using our cardiac myosin-specific DQ8-restricted (Clone E) T cell hybridoma that was engineered to produce β-galactosidase following T-cell receptor-antigen stimulation.
To assess the potential efficacy in the setting of post-infarct autoimmunity, we created a lacZ-inducible alpha myosin HC-specific CD4^+ T-cell hybridoma by fusing Clone E, a pathogenic DQ8-restricted CD4^+ T cell clone isolated from a myocarditic heart (Lv H et al., J Clin Invest, 2011) (FIGS. 14A-D), and BWZ.36 fusion partner (Karttunen J et al., Proc Natl Acad Sci USA, 1992), and successfully generated the hybrid, BWZ.36.CE. […]

NOD mice = conditions: cited from earlier work

C1CN2CN3CCN(CN1C3)C2 [TATD, tetraazatricyclododecane]
T cell response to insulin B9:23 peptide, measured by IL-2 concentration (I-Ag7): blocked
T cell response to insulin B9:23 peptide, measured by IL-2 concentration (DQ8; DQ8, dose dependent): blocked
relative potency of blocking DQ8 versus I-Ag7 molecules (DQ8; DQ8 compared with I-Ag7): more potently blocks DQ8 than I-A^g7
block of alpha myosin HC presentation to DQ8 molecules (T cell response to cardiac myosin stimulation) [1]: completely block; also recorded: blocked
preventing T1D in NOD mice (NOD mice): efficacious
